According to ChEMBL document CHEMBL5291721, “A preclinical secondary pharmacology resource illuminates target-adverse drug reaction associations of marketed drugs” (Nat Commun, 2023):

What was measured:
[1] = target: T1, Alpha-1A adrenergic receptor (Homo sapiens, UniProt P35348)
T1 sequence (P35348 whole entry): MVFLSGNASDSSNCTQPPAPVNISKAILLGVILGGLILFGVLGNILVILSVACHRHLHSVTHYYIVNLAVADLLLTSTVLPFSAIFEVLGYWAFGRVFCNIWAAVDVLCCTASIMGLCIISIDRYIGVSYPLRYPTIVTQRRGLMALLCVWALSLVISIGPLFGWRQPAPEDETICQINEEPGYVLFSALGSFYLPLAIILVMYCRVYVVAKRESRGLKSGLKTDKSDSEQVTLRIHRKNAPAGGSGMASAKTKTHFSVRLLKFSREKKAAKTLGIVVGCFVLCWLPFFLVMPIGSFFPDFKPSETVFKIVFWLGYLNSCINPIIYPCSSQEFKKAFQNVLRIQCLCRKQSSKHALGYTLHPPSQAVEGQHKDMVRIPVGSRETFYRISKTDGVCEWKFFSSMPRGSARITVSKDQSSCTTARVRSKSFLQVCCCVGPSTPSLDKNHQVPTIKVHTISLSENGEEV

[2] = target: T2, Equilibrative nucleoside transporter 1 (Homo sapiens, UniProt Q99808)
T2 sequence (Q99808 whole entry): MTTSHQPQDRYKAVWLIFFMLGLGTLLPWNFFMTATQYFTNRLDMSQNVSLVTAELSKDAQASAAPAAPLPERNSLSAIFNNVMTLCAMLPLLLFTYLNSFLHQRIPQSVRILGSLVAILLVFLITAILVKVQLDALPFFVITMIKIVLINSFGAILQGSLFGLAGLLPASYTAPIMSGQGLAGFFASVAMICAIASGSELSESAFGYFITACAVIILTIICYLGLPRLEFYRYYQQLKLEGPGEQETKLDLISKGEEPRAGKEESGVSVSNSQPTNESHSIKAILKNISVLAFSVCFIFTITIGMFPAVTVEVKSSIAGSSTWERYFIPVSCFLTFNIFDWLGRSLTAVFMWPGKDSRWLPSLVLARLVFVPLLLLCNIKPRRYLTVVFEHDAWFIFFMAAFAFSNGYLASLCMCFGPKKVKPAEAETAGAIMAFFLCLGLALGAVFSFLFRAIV

Thromboxane A2 receptor = target: T3, Thromboxane A2 receptor (Homo sapiens, UniProt P21731)
T3 sequence (P21731 whole entry): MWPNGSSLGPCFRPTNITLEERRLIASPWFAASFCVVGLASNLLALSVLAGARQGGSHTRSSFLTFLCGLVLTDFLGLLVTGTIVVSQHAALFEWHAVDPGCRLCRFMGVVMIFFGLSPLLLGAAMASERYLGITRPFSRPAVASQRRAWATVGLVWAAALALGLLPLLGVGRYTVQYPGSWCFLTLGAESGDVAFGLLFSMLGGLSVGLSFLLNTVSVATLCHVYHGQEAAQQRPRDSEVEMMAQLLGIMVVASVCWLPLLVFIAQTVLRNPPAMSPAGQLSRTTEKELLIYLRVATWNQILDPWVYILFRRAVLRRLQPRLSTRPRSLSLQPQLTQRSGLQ

Progesterone receptor = target: T4, Progesterone receptor (Homo sapiens, UniProt P06401); format: functional
T4 sequence (P06401 whole entry): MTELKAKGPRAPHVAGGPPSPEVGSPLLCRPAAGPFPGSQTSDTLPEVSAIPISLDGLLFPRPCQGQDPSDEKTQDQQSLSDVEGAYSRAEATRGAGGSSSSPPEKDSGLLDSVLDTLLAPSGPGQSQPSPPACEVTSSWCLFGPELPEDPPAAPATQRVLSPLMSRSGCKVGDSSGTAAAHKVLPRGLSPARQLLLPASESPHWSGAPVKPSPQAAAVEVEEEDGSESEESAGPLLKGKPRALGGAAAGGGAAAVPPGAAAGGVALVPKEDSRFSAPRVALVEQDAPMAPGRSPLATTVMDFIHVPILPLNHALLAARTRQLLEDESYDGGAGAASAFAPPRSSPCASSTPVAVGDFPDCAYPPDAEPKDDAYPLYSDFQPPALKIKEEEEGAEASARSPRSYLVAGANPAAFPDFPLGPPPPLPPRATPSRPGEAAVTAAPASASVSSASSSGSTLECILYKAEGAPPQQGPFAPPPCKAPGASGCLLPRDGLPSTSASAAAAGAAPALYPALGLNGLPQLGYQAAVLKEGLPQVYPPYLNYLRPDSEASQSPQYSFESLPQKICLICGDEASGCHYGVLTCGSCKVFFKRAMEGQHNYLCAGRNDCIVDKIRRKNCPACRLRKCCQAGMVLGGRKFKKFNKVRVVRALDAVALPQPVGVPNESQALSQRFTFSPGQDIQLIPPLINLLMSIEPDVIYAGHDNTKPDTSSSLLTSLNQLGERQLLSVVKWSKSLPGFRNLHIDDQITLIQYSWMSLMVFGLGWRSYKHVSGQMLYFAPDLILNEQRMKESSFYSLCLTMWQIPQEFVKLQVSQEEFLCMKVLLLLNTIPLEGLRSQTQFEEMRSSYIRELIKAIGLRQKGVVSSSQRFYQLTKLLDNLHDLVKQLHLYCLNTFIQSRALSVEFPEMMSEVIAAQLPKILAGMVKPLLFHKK

[3] = target: T5, Peroxisome proliferator-activated receptor gamma (Homo sapiens, UniProt P37231); format: functional
T5 sequence (P37231 whole entry): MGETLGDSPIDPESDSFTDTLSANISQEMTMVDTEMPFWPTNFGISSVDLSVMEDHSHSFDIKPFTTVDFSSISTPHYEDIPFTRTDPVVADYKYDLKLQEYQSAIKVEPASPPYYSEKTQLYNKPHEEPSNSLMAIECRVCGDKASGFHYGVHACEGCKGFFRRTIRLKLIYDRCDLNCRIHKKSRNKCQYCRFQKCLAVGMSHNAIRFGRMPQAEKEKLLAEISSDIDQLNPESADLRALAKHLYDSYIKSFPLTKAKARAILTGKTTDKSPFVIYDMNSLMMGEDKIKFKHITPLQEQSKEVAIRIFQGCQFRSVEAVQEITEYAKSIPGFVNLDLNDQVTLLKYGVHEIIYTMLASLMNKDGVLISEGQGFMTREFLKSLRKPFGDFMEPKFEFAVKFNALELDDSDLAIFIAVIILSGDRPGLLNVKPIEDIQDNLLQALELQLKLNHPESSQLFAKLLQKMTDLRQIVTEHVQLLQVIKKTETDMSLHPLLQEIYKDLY
Note: assay procedure not described here.

Row | Compound | AC50 [2] [µM] | AC50 (Thromboxane A2 receptor) [µM] | AC50 (Progesterone receptor) [µM] | AC50 [3] [µM] | AC50 [1] [µM]
1 | C[C@@H](O)[C@H]1C(=O)N2C(C(=O)O)=C(S[C@@H]3CN[C@H](C(=O)Nc4cccc(C(=O)O)c4)C3)[C@H](C)[C@H]12 |  |  |  |  | > 30
2 | CC(=O)OC1CN2CCC1CC2 (centres undefined) [ACECLIDINE] |  |  |  |  | > 30
3 | N=C(N)NC(=O)c1nc(Cl)c(N)nc1N [AMILORIDE] | > 30 | > 30 | > 30 |  | 
4 | CC(=O)Nc1ccc(/C=N/NC(N)=S)cc1 [AMITHIOZONE] |  |  |  |  | > 30
5 | COc1ccc(-c2cc(=S)ss2)cc1 [ANETHOLTRITHION] | 5.4 | 16 |  |  | 
6 | COc1cccc2c1C(=O)c1c(O)c3c(c(O)c1C2=O)C[C@@](O)(C(=O)CO)C[C@@H]3O[C@H]1C[C@H](N)[C@H](O)[C@H](C)O1 [DOXORUBICIN] | > 30 |  | > 30 | > 30 | 
7 | CCn1c(=O)c2c(nc(/C=C/c3ccc(OC)c(OC)c3)n2C)n(CC)c1=O [ISTRADEFYLLINE] |  |  | > 30 |  | 
8 | CSCC[C@H](N)C(=O)O [METHIONINE] |  |  |  |  | > 30
9 | OC(CN1CCCCC1)c1cc(-c2ccccc2)on1 (centres undefined) [PERISOXAL] |  |  |  |  | 3.86
10 | Oc1cc(Cl)ccc1Oc1ccc(Cl)cc1Cl [TRICLOSAN] |  | 21 | 18 |  | 

The next lines start with results.

Row | AC50 [2] [µM] | AC50 (Thromboxane A2 receptor) [µM] | AC50 (Progesterone receptor) [µM] | AC50 [3] [µM] | Compound | AC50 [1] [µM]
11 | > 30 | > 30 |  |  | C[C@]12CCC(=O)C=C1C=C[C@@H]1[C@@H]2CC[C@@]2(C)[C@H]1CC[C@@]21CCC(=O)O1 [CANRENONE] | 
12 | > 10 | > 10 | > 10 |  | CN(C)CCC(O)(c1ccccc1)c1ccccc1Cl (centres undefined) [CHLOPHEDIANOL] | 
13 | > 30 |  | > 3 | > 30 | C[C@]12C=CC(=O)C=C1C(Cl)=C[C@@H]1[C@@H]2[C@@H](O)C[C@@]2(C)[C@H]1CC[C@]2(O)C(=O)CO [CLOPREDNOL] | 
14 | > 30 | > 30 |  |  | C[C@]12CCC(=O)C=C1[C@@H]1C[C@@H]1[C@H]1[C@@H]3[C@@H]4C[C@@H]4[C@@]4(CCC(=O)O4)[C@@]3(C)CC[C@@H]12 [DROSPIRENONE] | 
15 | > 30 | > 30 | > 30 | > 30 | CC(C)(Oc1ccc(Cl)cc1)C(=O)OCCOC(=O)c1cccnc1 [ETOFIBRATE] | 
16 | > 30 | > 30 |  |  | C[C@]12C=CC(=O)C=C1CC[C@@H]1[C@@H]2[C@@H](O)C[C@@]2(C)[C@H]1CC[C@]2(O)C(=O)CO [PREDNISOLONE] | 
17 | > 10 | > 10 | > 30 |  | CCC(=O)c1ccc2c(c1)N(CC(C)N(C)C)c1ccccc1S2 (centres undefined) [PROPIOMAZINE] | 
18 | > 10 | > 10 | > 30 |  | CN(C)[C@@H]1C(O)=C(C(=O)NCN2CCCC2)C(=O)[C@@]2(O)C(O)=C3C(=O)c4c(O)cccc4[C@@](C)(O)[C@H]3C[C@@H]12 [ROLITETRACYCLINE] | 
19 |  | > 30 |  |  | CC1(C)O[C@@H]2C[C@H]3[C@@H]4CCC5=CC(=O)C=C[C@]5(C)[C@@]4(F)[C@@H](O)C[C@]3(C)[C@]2(C(=O)CO)O1 [TRIAMCINOLONE ACETONIDE] | 
